Source: ChEMBL document CHEMBL1201862, “PubChem BioAssay data set” (2004)
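How tested: cells in 96-well plates exposed to compound for 48 hours at five concentrations. Abbreviation: GI50, concentration required for 50% inhibition of growth.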 Calls of active or inactive are those of the source. No stated cut-off is given here; in the data, active = GI50 up to about 1.1 µM and inactive = higher.

Key:
Experiment in all cases: growth of human tumour cells (NCI), 48 h
SW-620 = test system: SW-620
Hs-578T = test system: Hs-578T
COLO 205 = test system: COLO 205
SK-OV-3 = test system: SK-OV-3
OVCAR-3 = test system: OVCAR-3
MDA-MB-231 = test system: MDA-MB-231
NCI-H226 = test system: NCI-H226
M14 = test system: M14
U-251 = test system: U-251
SF-295 = test system: SF-295
SNB-75 = test system: SNB-75
NCI-H460 = test system: NCI-H460
SF-268 = test system: SF-268
RXF 393 = test system: RXF 393
HCC 2998 = test system: HCC 2998
IGROV-1 = test system: IGROV-1
RPMI-8226 = test system: RPMI-8226
OVCAR-8 = test system: OVCAR-8
UACC-62 = test system: UACC-62
HCT-116 = test system: HCT-116

Structure (SMILES)	GI50 (SW-620)	GI50 (Hs-578T)	GI50 (COLO 205)	GI50 (SK-OV-3)	GI50 (OVCAR-3)	GI50 (MDA-MB-231)	GI50 (NCI-H226)	GI50 (M14)	GI50 (U-251)	GI50 (SF-295)	GI50 (SNB-75)	GI50 (NCI-H460)	GI50 (SF-268)	GI50 (RXF 393)	GI50 (HCC 2998)	GI50 (IGROV-1)	GI50 (RPMI-8226)	GI50 (OVCAR-8)	GI50 (UACC-62)	GI50 (HCT-116)
O=C(Nc1ccc2ncccc2c1)c1cc2c(cc1Cl)Sc1nccn1S2(=O)=O	16 µM (inactive)	31.2 µM (inactive)	18.7 µM (inactive)	33.3 µM (inactive)	21.7 µM (inactive)	20.4 µM (inactive)	18.1 µM (inactive)	15.1 µM (inactive)	13.6 µM (inactive)	15.9 µM (inactive)	15.3 µM (inactive)	15.7 µM (inactive)	18.1 µM (inactive)	15.6 µM (inactive)	14.7 µM (inactive)	12.6 µM (inactive)	6.85 µM (inactive)	16.5 µM (inactive)	16.6 µM (inactive)	12.8 µM (inactive)
O=c1c2ccccc2sc2cccc(NCCCN3CCN(CCCNc4cccc5sc6ccccc6c(=O)c45)CC3)c12	> 100 µM (inactive)	52.7 µM (inactive)	> 100 µM (inactive)	> 100 µM (inactive)	> 100 µM (inactive)	> 100 µM (inactive)	> 100 µM (inactive)	> 100 µM (inactive)	> 100 µM (inactive)	> 100 µM (inactive)	19.5 µM (inactive)	> 100 µM (inactive)	> 100 µM (inactive)	> 100 µM (inactive)	> 100 µM (inactive)	> 100 µM (inactive)	> 100 µM (inactive)		64.7 µM (inactive)	> 100 µM (inactive)
Nc1cc(F)ccc1CC(=O)O	> 100 µM (inactive)	> 100 µM (inactive)	> 100 µM (inactive)	> 100 µM (inactive)		> 100 µM (inactive)	> 100 µM (inactive)	> 100 µM (inactive)	> 100 µM (inactive)	> 100 µM (inactive)	> 100 µM (inactive)		> 100 µM (inactive)	> 100 µM (inactive)	> 100 µM (inactive)	> 100 µM (inactive)	> 100 µM (inactive)	> 100 µM (inactive)	> 100 µM (inactive)	> 100 µM (inactive)
Cc1ccc2c(c1C)CC1(Cc3ccc(C)c(C)c3C1=O)C2=O (stereo unspecified)	> 100 µM (inactive)	91.8 µM (inactive)	> 100 µM (inactive)		> 100 µM (inactive)	30.8 µM (inactive)	52.1 µM (inactive)	> 100 µM (inactive)	44 µM (inactive)	30.3 µM (inactive)	67.6 µM (inactive)	> 100 µM (inactive)	> 100 µM (inactive)	17.1 µM (inactive)	> 100 µM (inactive)	21.7 µM (inactive)	> 100 µM (inactive)	61.5 µM (inactive)	> 100 µM (inactive)	> 100 µM (inactive)
Cn1c2c(c3ccccc31)CCN1C(=O)CCC21 (stereo unspecified)	> 10 µM (inactive)	> 10 µM (inactive)	> 10 µM (inactive)	> 10 µM (inactive)	> 10 µM (inactive)	> 10 µM (inactive)	> 10 µM (inactive)	> 10 µM (inactive)	> 10 µM (inactive)	> 10 µM (inactive)	> 10 µM (inactive)	> 10 µM (inactive)	> 10 µM (inactive)	> 10 µM (inactive)	> 10 µM (inactive)	> 10 µM (inactive)	> 10 µM (inactive)	> 10 µM (inactive)		
CN(C)/C=N/NC(=O)/C(C#N)=C/N(C)C	> 100 µM (inactive)	> 100 µM (inactive)	> 100 µM (inactive)	> 100 µM (inactive)	> 100 µM (inactive)	> 100 µM (inactive)	> 100 µM (inactive)	> 100 µM (inactive)	> 100 µM (inactive)	> 100 µM (inactive)	> 100 µM (inactive)	> 100 µM (inactive)	> 100 µM (inactive)	> 100 µM (inactive)	> 100 µM (inactive)	> 100 µM (inactive)	> 100 µM (inactive)	> 100 µM (inactive)	> 100 µM (inactive)	> 100 µM (inactive)
COc1ccc(/C=C(\C#N)c2nc3ccccc3c(=O)[nH]2)cc1	50.4 µM (inactive)	15.1 µM (inactive)	73.6 µM (inactive)	11.3 µM (inactive)		4.84 µM (inactive)	27 µM (inactive)	30 µM (inactive)	9.42 µM (inactive)	20.5 µM (inactive)	23.9 µM (inactive)	16.6 µM (inactive)	13.7 µM (inactive)	15.5 µM (inactive)	49.5 µM (inactive)	30.3 µM (inactive)	> 100 µM (inactive)	10.6 µM (inactive)	18.4 µM (inactive)	5.22 µM (inactive)
CCOC(=O)c1sc2nc(SC)nc3c2c1N=CN3c1ccccc1Cl	> 100 µM (inactive)	5.58 µM (inactive)	> 100 µM (inactive)	31.4 µM (inactive)	32.6 µM (inactive)	30.9 µM (inactive)	> 100 µM (inactive)	62.1 µM (inactive)	21.3 µM (inactive)	32.7 µM (inactive)	14.4 µM (inactive)	> 100 µM (inactive)	24.1 µM (inactive)	18.1 µM (inactive)	> 100 µM (inactive)	68.1 µM (inactive)	> 100 µM (inactive)	52.6 µM (inactive)	33 µM (inactive)	40.9 µM (inactive)
Cn1c([C@H](C#N)c2ncccc2[N+](=O)[O-])nc2ccccc21	> 100 µM (inactive)	29.9 µM (inactive)		32.8 µM (inactive)	> 100 µM (inactive)	> 100 µM (inactive)	> 100 µM (inactive)	> 100 µM (inactive)	34.8 µM (inactive)	28.4 µM (inactive)	28.2 µM (inactive)	76.4 µM (inactive)	36 µM (inactive)	19.5 µM (inactive)	> 100 µM (inactive)		> 100 µM (inactive)	49.3 µM (inactive)	> 100 µM (inactive)	> 100 µM (inactive)
O=C1c2cccc3cc([N+](=O)[O-])cc(c23)C(=O)N1O	38.2 µM (inactive)	38.7 µM (inactive)	51.1 µM (inactive)	46.9 µM (inactive)	28.9 µM (inactive)	14.2 µM (inactive)	31 µM (inactive)	39.2 µM (inactive)	41.8 µM (inactive)	46.1 µM (inactive)		27.2 µM (inactive)	85.3 µM (inactive)	33 µM (inactive)	25.2 µM (inactive)	22.9 µM (inactive)	19.4 µM (inactive)	44.5 µM (inactive)	23.9 µM (inactive)	27 µM (inactive)
C=C1C2CC3CCC2C(OC(=O)c2ccccc2C(=O)O)C13 (stereo unspecified)	> 100 µM (inactive)	> 100 µM (inactive)	> 100 µM (inactive)	> 100 µM (inactive)	95.9 µM (inactive)	> 100 µM (inactive)	> 100 µM (inactive)	> 100 µM (inactive)	> 100 µM (inactive)	> 100 µM (inactive)	3.1 µM (inactive)	> 100 µM (inactive)	> 100 µM (inactive)	> 100 µM (inactive)	> 100 µM (inactive)	> 100 µM (inactive)		> 100 µM (inactive)	> 100 µM (inactive)	> 100 µM (inactive)
CN(C)CCn1c(=O)c2ccc(NCCCN(C)CCCNc3ccc4c(=O)n(CCN(C)C)c(=O)n5c6ccc(O)cc6c(=O)c3c45)c3c(=O)c4cc(O)ccc4n(c1=O)c23	< 0.01 µM (active)	0.0234 µM (active)	< 0.01 µM (active)		0.059 µM (active)	< 0.0244 µM (active)	< 0.01 µM (active)	0.147 µM (active)	< 0.01 µM (active)	< 0.01 µM (active)	< 0.01 µM (active)	< 0.01 µM (active)	0.0481 µM (active)	< 0.0125 µM (active)	< 0.0151 µM (active)	< 0.01 µM (active)	< 0.01 µM (active)	< 0.01 µM (active)	< 0.0116 µM (active)	< 0.01 µM (active)
Cc1cn(C(=O)NC23CC4CC(CC(C4)C2)C3)c(=O)[nH]c1=O	40.6 µM (inactive)	32.7 µM (inactive)	24 µM (inactive)	34.4 µM (inactive)	88.3 µM (inactive)	24.7 µM (inactive)	24.9 µM (inactive)	36.1 µM (inactive)	43.5 µM (inactive)	36.5 µM (inactive)	31.7 µM (inactive)	42.9 µM (inactive)	37.5 µM (inactive)	21.6 µM (inactive)	50.4 µM (inactive)		25.5 µM (inactive)	32.7 µM (inactive)	21.8 µM (inactive)	34.4 µM (inactive)
COC(=O)c1c(C)cccc1C1CN=NC12Cc1cc(C)c(C)cc1C2=O (stereo unspecified)	52.6 µM (inactive)	96.4 µM (inactive)	39.4 µM (inactive)	55.2 µM (inactive)	62.4 µM (inactive)	65.9 µM (inactive)	47.9 µM (inactive)	40.6 µM (inactive)	41.6 µM (inactive)	48.5 µM (inactive)	38.1 µM (inactive)	47.9 µM (inactive)	66.5 µM (inactive)	68.4 µM (inactive)	> 100 µM (inactive)	> 100 µM (inactive)		78.7 µM (inactive)	69.5 µM (inactive)	34.8 µM (inactive)
